{"source": "paper PMC6368365", "about": "“Didehydro-Cortistatin A Inhibits HIV-1 by Specifically Binding to the Unstructured Basic Region of Tat” (mBio, 2019)"}
{"test_system": "recombinant Tat transactivation of HIV-1 5′ LTR-luciferase", "assay": "Transactivation assay with recombinant Tat in HeLa-CD4-LTR-Luc cells", "format": "cell-based", "description": "The production of functional recombinant HIV-1 Tat in Escherichia coli is not trivial as the proper folding of Tat is extremely important for activity, and when expressed by itself, Tat agglomerates mostly because of oxidation of the cysteine residues in the cysteine region. Tat can also adhere to different surfaces and anionic polymers via its charged and hydrophobic residues ([21], [22]). We produced and purified recombinant HIV Tat HXB3 (residues 1 to 89) with a 6×His tag in the C-terminus in E. coli. For this, we have partially optimized the arginine codon usage and changed the rare AGA into codon CGT at arginine positions 7, 53, 56, and 87 of Tat (Fig. 1A). […] After Tat purification using nickel affinity chromatography followed by size exclusion filtration, Tat protein size was analyzed by SDS-PAGE followed by Coomassie blue staining (Fig. 1B). The specificity of the bands was confirmed by Western blotting using anti-Tat serum and anti-His antibody (Fig. 1B). The purity of Tat was further verified by size exclusion chromatography and high-performance liquid chromatography (HPLC) (Fig. 1C and D). We confirmed the activity of Tat by performing transactivation assays in both HeLa-CD4 cells stably expressing the HIV-1 5′ long terminal repeat (LTR) promoter driving luciferase expression (HeLa-CD4-LTR-Luc cells) ([10]) and the OM10.1 cell line model of HIV-1 latency ([23]) (Fig. 1E and F; see Fig. S2A and S2B in the supplemental material). In HeLa-CD4-LTR-Luc cells, the activity of our purified Tat was similar to the published activity of Tat obtained from the AIDS Reagent Program ([10]). In addition, denatured Tat and Tat mutated in the basic domain (Tat Mut [arginine residues mutated to alanine residues]), used as negative controls, were unable to transactivate the reporter (Fig. S2A).\nFIG 1 Purity and activity of the monomeric His-tagged Tat HXB3 and analysis of its direct binding to dCA. […] Statistical significance was determined using one-way ANOVA with post hoc Tukey’s test. ns, not significant; ***, P < 0.0001; *, P < 0.01. […]"}
{"smiles": "C[C@@](Cc1ccc(O)c(O)c1)(NN)C(=O)O.O", "note": "[SCM, S-(−)-carbidopamonohydrate, reference compound]", "inhibition of recombinant Tat transactivation (luciferase)": "no inhibitory activity"}
{"smiles": "CN(C)C1CC23CCC4(O2)C(=CCC2(C)C(c5ccc6ccncc6c5)=CCC24)C=C3C(O)C1O", "note": "(stereo not drawn) [dCA, didehydro-cortistatin A]", "inhibition of recombinant Tat transactivation (luciferase)": "blocked Tat transcriptional activity in a dose-dependent manner"}
{"smiles": "Cc1nnc(C(=O)NC(C)(C)c2nc(C(=O)NCc3ccc(F)cc3)c(O)c(=O)n2C)o1", "note": "[raltegravir, reference compound]", "inhibition of recombinant Tat transactivation (luciferase)": "no inhibitory activity"}
